Test [1] has as its system MCF-7 cells. Description: Breast Cancer Cell Viability Assays (MCF-7, CellTiter-Glo). Format: cell-based. The note with it: 5 days' compound exposure; for IC50: Homo sapiens, MCF7, 120 h. An outline of the steps: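 MCF-7 cells (320/well, RPMI with 10% FBS) exposed for 5 days to an eleven-point semilog series, 0.3–0.000003 μM final. Viability read by CellTiter-Glo luminescence, expressed as background-corrected percent of untreated cells.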
A general note: Cellular ATP, detected with luciferase, serves as a proxy for viable cell number.

Test [2] addresses T1, ER-α in MCF-7 cells (Homo sapiens, UniProt P03372).
T1 construct: endogenous in cells; host or cells: MCF-7
T1 sequence (P03372 1-595): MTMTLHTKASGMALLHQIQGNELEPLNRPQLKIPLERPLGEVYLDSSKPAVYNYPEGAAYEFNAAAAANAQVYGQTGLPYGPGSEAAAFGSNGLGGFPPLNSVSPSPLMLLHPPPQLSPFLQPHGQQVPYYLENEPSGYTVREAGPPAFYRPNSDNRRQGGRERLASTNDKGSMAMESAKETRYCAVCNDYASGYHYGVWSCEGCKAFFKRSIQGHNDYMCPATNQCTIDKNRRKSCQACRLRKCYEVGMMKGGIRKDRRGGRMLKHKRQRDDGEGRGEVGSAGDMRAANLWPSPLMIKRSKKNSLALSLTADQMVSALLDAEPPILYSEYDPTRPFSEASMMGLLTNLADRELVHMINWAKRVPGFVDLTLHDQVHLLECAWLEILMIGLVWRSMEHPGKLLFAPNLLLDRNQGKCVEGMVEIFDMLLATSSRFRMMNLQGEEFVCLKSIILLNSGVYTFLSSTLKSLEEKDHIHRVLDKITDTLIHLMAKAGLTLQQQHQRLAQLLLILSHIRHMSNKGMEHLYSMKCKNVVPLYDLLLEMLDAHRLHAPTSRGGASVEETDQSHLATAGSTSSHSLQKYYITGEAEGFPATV
Description: Breast Cancer Cell ER-α In Cell Western Assay (SP1). The test is classed as cell-based. To be noted: 4 or 24 hr post compound addition; for Emax: MCF7, SP1 antibody, read-out: ER-α In Cell Western Assay (SP1) Max Response; for DC50: SP1 antibody, read-out: ER-α In Cell Western Assay (SP1) IC50. In outline:
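MCF-7 cells in charcoal-stripped FBS medium, treated with 11-point semilog dilutions (0.3–0.000003 μM final) for 4 or 24 h. Fixed cells immunostained with SP1 antibody (800 nm) and DRAQ5 DNA (700 nm); ER/DNA ratio expressed as % of untreated cells.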

Bounds are passed on as bounds.

The term IC50 denotes the concentration that inhibits the measured activity by half. Read a low IC50 as greater potency. Take `COc1cccc(/C(=C(\c2ccc(/C=C/C(=O)O)cc2)c2ccc3[nH]nc(F)c3c2)C2CCC2)n1` [Example 147, (E)-3-(4-((E)-2-Cyclobutyl-1-(3-fluoro-1H-indazol-5-yl)-2-(6-methoxypyridin-2-yl)vinyl)phenyl)acrylic acid]: in test [1], the “MCF7 Viability Assay Max Response” value is recorded as “++ (++ = a single % value ≧ 40%)” and the IC50 was no more than 0.1 µM. In test [2], the Emax is no less than 40% and the DC50 is no more than 0.1 µM.

In the case of `N#Cc1n[nH]c2ccc(/C(=C(/c3ccccc3)C3CCC3)c3ccc(/C=C/C(=O)O)cc3)cc12` [Example 148, (E)-3-(4-((E)-1-(3-Cyano-1H-indazol-5-yl)-2-cyclobutyl-2-phenylvinyl)phenyl)acrylic acid], in test [1], the “MCF7 Viability Assay Max Response” value is “++ (++ = a single % value ≧ 40%)” and the 50% inhibitory concentration (IC50) is no more than 0.1 µM. In test [2], the Emax is no less than 40% and the DC50 is no more than 0.1 µM.

For `Cc1sccc1/C(=C(\c1ccc(/C=C/C(=O)O)cc1)c1ccc2[nH]nc(F)c2c1)C1CCC1` [Example 149, (E)-3-(4-((E)-2-Cyclobutyl-1-(3-fluoro-1H-indazol-5-yl)-2-(2-methylthiophen-3-yl)vinyl)phenyl)acrylic acid], in test [1], the “MCF7 Viability Assay Max Response” value is on record as “++ (++ = a single % value ≧ 40%)” and the IC50 was no more than 0.1 µM. Moreover, in test [2], the Emax is no less than 40% and the DC50 is no more than 0.1 µM.

With `Cc1cc(/C(=C(\c2ccc(/C=C/C(=O)O)cc2)c2ccc3[nH]nc(F)c3c2)C2CCC2)c(C)s1` [Example 150, (E)-3-(4-((E)-2-Cyclobutyl-2-(2,5-dimethylthiophen-3-yl)-1-(3-fluoro-1H-indazol-5-yl)vinyl)phenyl)acrylic acid], in test [1], the “MCF7 Viability Assay Max Response” value was “++ (++ = a single % value ≧ 40%)” and the IC50 was no more than 0.1 µM. For the same molecule, in test [2], the Emax is no less than 40% and the DC50 was no more than 0.1 µM.

Consider `CC/C(=C(/c1ccc(/C=C/C(=O)O)cc1)c1ccc2[nH]ncc2c1)c1ccc(C#N)cc1F` [Example 151, (E)-3-(4-((E)-2-(4-Cyano-2-fluorophenyl)-1-(1H-indazol-5-yl)but-1-en-1-yl)phenyl)acrylic acid], for which, in test [1], the “MCF7 Viability Assay Max Response” value is on record as “++ (++ = a single % value ≧ 40%)” and the IC50 is no more than 0.1 µM. Besides, in test [2], the Emax is no less than 40% and the DC50 is no more than 0.1 µM.

As for `O=C(O)/C=C/c1ccc(/C(=C(\c2ccc(F)cc2Cl)C2CC2)c2ccc3[nH]nc(F)c3c2)cc1` [Example 152, (E)-3-(4-((E)-2-(2-Chloro-4-fluorophenyl)-2-cyclopropyl-1-(3-fluoro-1H-indazol-5-yl)vinyl)phenyl)acrylic acid], in test [1], the “MCF7 Viability Assay Max Response” value is recorded as “++ (++ = a single % value ≧ 40%)” and the IC50 was no more than 0.1 µM. In addition, in test [2], the Emax is no less than 40% and the DC50 was no more than 0.1 µM.

For `O=C(O)/C=C/c1ccc(/C(=C(\c2ccccc2Cl)C2CC2)c2ccc3[nH]nc(F)c3c2)cc1` [Example 153, (E)-3-(4-((E)-2-(2-Chlorophenyl)-2-cyclopropyl-1-(3-fluoro-1H-indazol-5-yl)vinyl)phenyl)acrylic acid], in test [1], the “MCF7 Viability Assay Max Response” value was “++ (++ = a single % value ≧ 40%)” and the IC50 is no more than 0.1 µM. In test [2], the Emax was no less than 40% and the DC50 was no more than 0.1 µM.

With `O=C(O)/C=C/c1ccc(/C(=C(\c2ccccc2F)C2CC2)c2ccc3[nH]nc(F)c3c2)cc1` [Example 154, (E)-3-(4-((E)-2-Cyclopropyl-1-(3-fluoro-1H-indazol-5-yl)-2-(2-fluorophenyl)vinyl)phenyl)acrylic acid], in test [1], the “MCF7 Viability Assay Max Response” value is given as “++ (++ = a single % value ≧ 40%)” and the IC50 is no more than 0.1 µM. In addition, in test [2], the Emax was no less than 40% and the DC50 is no more than 0.1 µM.

On to `N#Cc1cc(F)ccc1/C(=C(\c1ccc(/C=C/C(=O)O)cc1)c1ccc2[nH]nc(F)c2c1)C1CC1` [Example 155, (E)-3-(4-((E)-2-(2-Cyano-4-fluorophenyl)-2-cyclopropyl-1-(3-fluoro-1H-indazol-5-yl)vinyl)phenyl)acrylic acid], for which, in test [1], the “MCF7 Viability Assay Max Response” value is “++ (++ = a single % value ≧ 40%)” and the IC50 was no more than 0.1 µM. In addition, in test [2], the Emax was no less than 40% and the DC50 is no more than 0.1 µM.

For `N#Cc1ccc(/C(=C(\c2ccc(/C=C/C(=O)O)cc2)c2ccc3[nH]nc(F)c3c2)C2CC2)c(F)c1` [Example 156, (E)-3-(4-((E)-2-(4-Cyano-2-fluorophenyl)-2-cyclopropyl-1-(3-fluoro-1H-indazol-5-yl)vinyl)phenyl)acrylic acid], in test [1], the “MCF7 Viability Assay Max Response” value is reported as “++ (++ = a single % value ≧ 40%)” and the IC50 is no more than 0.1 µM. Also, in test [2], the Emax was no less than 40% and the DC50 was no more than 0.1 µM.

For `O=C(O)/C=C/c1ccc(/C(=C(\c2ccncc2Cl)C2CC2)c2ccc3[nH]nc(F)c3c2)cc1` [Example 157, (E)-3-(4-((E)-2-(3-Chloropyridin-4-yl)-2-cyclopropyl-1-(3-fluoro-1H-indazol-5-yl)vinyl)phenyl)acrylic acid], in test [1], the “MCF7 Viability Assay Max Response” value is “++ (++ = a single % value ≧ 40%)” and the IC50 is no more than 0.1 µM. In addition, in test [2], the Emax was no less than 40% and the DC50 is no more than 0.1 µM.

With `COc1cnc(/C(=C(\c2ccc(/C=C/C(=O)O)cc2)c2ccc3[nH]nc(F)c3c2)C2CC2)c(C)c1` [Example 158, (E)-3-(4-((E)-2-Cyclopropyl-1-(3-fluoro-1H-indazol-5-yl)-2-(5-methoxy-3-methylpyridin-2-yl)vinyl)phenyl)acrylic acid], in test [1], the “MCF7 Viability Assay Max Response” value was “++ (++ = a single % value ≧ 40%)” and the IC50 was no more than 0.1 µM. Further, in test [2], the Emax was no less than 40% and the DC50 is no more than 0.1 µM.

In the case of `O=C(O)/C=C/c1cnc(/C(=C(\c2ccccc2)C2CCC2)c2ccc3[nH]nc(F)c3c2)cn1` [Example 159, (E)-3-(5-((Z)-2-Cyclobutyl-1-(3-fluoro-1H-indazol-5-yl)-2-phenylvinyl)pyrazin-2-yl)acrylic acid], in test [1], the “MCF7 Viability Assay Max Response” value is recorded as “++ (++ = a single % value ≧ 40%)” and the IC50 is no more than 0.1 µM. In test [2], the Emax was no less than 40% and the DC50 was no more than 0.1 µM.

`O=C(O)/C=C/c1ccc(/C(=C(\c2ccccc2)C2CCC2)c2ccc3[nH]nc(F)c3c2)nc1` [Example 160, (E)-3-(6-((Z)-2-Cyclobutyl-1-(3-fluoro-1H-indazol-5-yl)-2-phenylvinyl)pyridin-3-yl)acrylic acid]: in test [1], the “MCF7 Viability Assay Max Response” value is reported as “++ (++ = a single % value ≧ 40%)” and the IC50 is no more than 0.1 µM. Further, in test [2], the Emax is no less than 40% and the DC50 was no more than 0.1 µM.

As to `O=C(O)/C=C/c1ncc(/C(=C(\c2ccccc2)C2CCC2)c2ccc3[nH]nc(F)c3c2)cc1F` [Example 161, (E)-3-(5-((Z)-2-Cyclobutyl-1-(3-fluoro-1H-indazol-5-yl)-2-phenylvinyl)-3-fluoropyridin-2-yl)acrylic acid], in test [1], the “MCF7 Viability Assay Max Response” value is recorded as “++ (++ = a single % value ≧ 40%)” and the IC50 is no more than 0.1 µM. Moreover, in test [2], the Emax is no less than 40% and the DC50 was no more than 0.1 µM.

`O=C(O)/C=C/c1ncc(/C(=C(\c2ccccc2)C2CCC2)c2ccc3[nH]nc(F)c3c2)cn1` [Example 162, (E)-3-(5-((Z)-2-Cyclobutyl-1-(3-fluoro-1H-indazol-5-yl)-2-phenylvinyl)pyrimidin-2-yl)acrylic acid]: in test [1], the “MCF7 Viability Assay Max Response” value was “++ (++ = a single % value ≧ 40%)” and the IC50 is greater than 0.1 µM. For the same molecule, in test [2], the Emax is no less than 40% and the DC50 is greater than 0.1 µM.

Regarding `CC/C(=C(/c1ccc(/C=C/C(=O)O)cc1)c1cccc2[nH]nc(F)c12)c1ccc(F)cc1Cl` [Example 163, (E)-3-(4-((E)-2-(2-Chloro-4-fluorophenyl)-1-(3-fluoro-1H-indazol-4-yl)but-1-en-1-yl)phenyl)acrylic acid], in test [1], the “MCF7 Viability Assay Max Response” value is given as “++ (++ = a single % value ≧ 40%)” and the IC50 is no more than 0.1 µM. In addition, in test [2], the Emax was no less than 40% and the DC50 was no more than 0.1 µM.

Regarding `COc1nc(/C=C/C(=O)O)ccc1/C(=C(\c1ccccc1)C1CCC1)c1ccc2[nH]nc(F)c2c1` [Example 164, (E)-3-(5-((Z)-2-Cyclobutyl-1-(3-fluoro-1H-indazol-5-yl)-2-phenylvinyl)-6-methoxypyridin-2-yl)acrylic acid], in test [1], the “MCF7 Viability Assay Max Response” value was “++ (++ = a single % value ≧ 40%)” and the IC50 was no more than 0.1 µM. In test [2], the Emax is no less than 40% and the DC50 was no more than 0.1 µM.

(Values after patent US9499538B2, “Estrogen receptor modulators and uses thereof” (Seragon Pharmaceuticals, Inc., priority 2012, dated 2016).)
